This passage reports IC50 results from patent US12441736B2, “KIF18A inhibitors” (AMGEN INC., priority 2018, dated 2025).

Structures are written as SMILES.

T1 sequence (Q8NI77 1-467): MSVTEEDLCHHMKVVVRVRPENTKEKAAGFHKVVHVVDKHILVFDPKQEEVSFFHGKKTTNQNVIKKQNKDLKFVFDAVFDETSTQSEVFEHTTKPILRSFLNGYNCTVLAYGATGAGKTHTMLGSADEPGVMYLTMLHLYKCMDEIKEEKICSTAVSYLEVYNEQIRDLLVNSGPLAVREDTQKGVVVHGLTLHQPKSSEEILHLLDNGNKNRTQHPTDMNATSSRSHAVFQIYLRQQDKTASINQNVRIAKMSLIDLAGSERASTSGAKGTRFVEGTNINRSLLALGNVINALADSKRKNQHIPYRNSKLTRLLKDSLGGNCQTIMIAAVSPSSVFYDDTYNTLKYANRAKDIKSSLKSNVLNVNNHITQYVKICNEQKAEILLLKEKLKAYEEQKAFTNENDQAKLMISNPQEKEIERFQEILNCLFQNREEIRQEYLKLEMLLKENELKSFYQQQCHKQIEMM
T1 sequence (P02550 whole entry partner): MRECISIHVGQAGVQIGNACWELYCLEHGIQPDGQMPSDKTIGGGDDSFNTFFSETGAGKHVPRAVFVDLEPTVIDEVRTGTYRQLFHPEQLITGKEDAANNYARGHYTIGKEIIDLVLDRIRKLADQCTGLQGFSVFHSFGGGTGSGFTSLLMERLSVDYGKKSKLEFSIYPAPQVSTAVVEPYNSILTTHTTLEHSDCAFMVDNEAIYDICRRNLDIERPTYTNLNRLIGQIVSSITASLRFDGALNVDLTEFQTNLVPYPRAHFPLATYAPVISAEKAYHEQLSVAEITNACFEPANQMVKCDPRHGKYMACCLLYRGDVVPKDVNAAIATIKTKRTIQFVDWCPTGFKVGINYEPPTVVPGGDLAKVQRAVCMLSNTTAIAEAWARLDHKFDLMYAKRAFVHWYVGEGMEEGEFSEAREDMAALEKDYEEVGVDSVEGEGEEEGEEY
T1 sequence (P02554 whole entry partner): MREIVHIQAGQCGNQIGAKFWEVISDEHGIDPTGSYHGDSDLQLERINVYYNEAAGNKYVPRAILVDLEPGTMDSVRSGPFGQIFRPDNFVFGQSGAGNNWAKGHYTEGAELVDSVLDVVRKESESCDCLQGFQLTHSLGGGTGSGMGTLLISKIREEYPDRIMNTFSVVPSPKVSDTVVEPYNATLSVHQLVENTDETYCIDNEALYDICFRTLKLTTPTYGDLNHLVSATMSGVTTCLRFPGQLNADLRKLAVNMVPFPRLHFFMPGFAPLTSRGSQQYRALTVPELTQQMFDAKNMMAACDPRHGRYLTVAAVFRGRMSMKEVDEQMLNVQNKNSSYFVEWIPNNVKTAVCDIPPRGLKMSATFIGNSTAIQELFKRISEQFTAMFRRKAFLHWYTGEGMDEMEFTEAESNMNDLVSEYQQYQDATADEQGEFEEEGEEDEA

The experiment addresses T1, Recombinant human KIF18A (1-467 His-tagged) protein (Homo sapiens, UniProt Q8NI77).
T1 construct: Recombinant human KIF18A (1-467 His-tagged) protein; His; made in house
The experiment in a line: KIF18A Enzyme Assay: microtubule-stimulated ATPase activity (ADP-Glo). In kind it is biochemical. The following applies: 30 nM KIF18A, 30 μg/mL pig microtubules, 75 μM ATP, ADP-Glo luminescence. A digest of the protocol: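 His-tagged human KIF18A (1-467, baculovirus), 30 nM, pre-incubated 15 min with compound in Tris pH 7.5 containing 30 μg/mL taxol-stabilised pig microtubules. ATP was then added at Km (75 μM) for 15 min at room temperature. ADP was measured by ADP-Glo luminescence, and IC50 was fitted by 4-parameter logistic over 22 points.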
In general terms: ADP-Glo first removes unused ATP, then detects ADP through luciferase.
A word on the IC50: it is the concentration at which inhibition is half-maximal. Consider `CCN1CCN(c2cccc(NC(=O)c3ccc(NC(C)(C)CO)nc3N3CCC4(CC3)CC4)n2)CC1` [Example 192, 2-(6-azaspiro[2.5]octan-6-yl)-N-(6-(4-ethyl-1-piperazinyl)-2-pyridinyl)-6-((1-hydroxy-2-methyl-2-propanyl)amino)-3-pyridinecarboxamide], for which the IC50 came to 1090 nM.
Turning to `COC(=O)C(F)(C(=O)OC)c1ccc(C(=O)Nc2cccc(S(=O)(=O)NC(C)(C)C)n2)c(N2CCC3(CC2)CC3)n1` [Example 193, dimethyl (6-(6-azaspiro[2.5]octan-6-yl)-5-((6-((2-methyl-2-propanyl)sulfamoyl)-2-pyridinyl)carbamoyl)-2-pyridinyl)(fluoro)propanedioate], the IC50 came to 239 nM.
In the case of `CC(C)(C)NS(=O)(=O)c1cccc(NC(=O)c2ccc(C(F)(CO)CO)nc2N2CCC3(CC2)CC3)n1` [Example 194, 2-(6-azaspiro[2.5]octan-6-yl)-6-(2-fluoro-1,3-dihydroxy-2-propanyl)-N-(6-((2-methyl-2-propanyl)sulfamoyl)-2-pyridinyl)-3-pyridinecarboxamide], the IC50 was determined as 283 nM.
For `CC(C)(C)NS(=O)(=O)c1cccc(NC(=O)c2ccc(C(F)CO)nc2N2CCC3(CC2)CC3)n1` (centres unmarked) [Example 195, N-(6-(N-(tert-butyl)sulfamoyl)pyridin-2-yl)-6-(1-fluoro-2-hydroxyethyl)-2-(6-azaspiro[2.5]octan-6-yl)nicotinamide], the IC50 was 196 nM.
With `C[C@@H]1CN(c2cccc(NC(=O)c3ccc(C(F)(CO)CO)nc3N3CCC4(CC3)CC4)n2)CCO1` [Example 196, 2-(6-azaspiro[2.5]octan-6-yl)-6-(2-fluoro-1,3-dihydroxy-2-propanyl)-N-(6-((2R)-2-methyl-4-morpholinyl)-2-pyridinyl)-3-pyridinecarboxamide], the IC50 came to 158 nM.
As for `C[C@@H]1CN(c2cccc(NC(=O)c3ccc(C(F)CO)nc3N3CCC4(CC3)CC4)n2)CCO1` (stereo partly drawn) [Example 197, 6-(1-Fluoro-2-hydroxyethyl)-N-(6-((R)-2-methylmorpholino)pyridin-2-yl)-2-(6-azaspiro[2.5]octan-6-yl)nicotinamide], the IC50 amounted to 180 nM.
To `COC(=O)C(F)(C(=O)OC)c1ccc(C(=O)Nc2cccc(N3CCO[C@H](C)C3)n2)c(N2CCC3(CC2)CC3)n1` [Example 198, dimethyl (6-(6-azaspiro[2.5]octan-6-yl)-5-((6-((2R)-2-methyl-4-morpholinyl)-2-pyridinyl)carbamoyl)-2-pyridinyl)(fluoro)propanedioate] belongs 156 nM; to `COCC(C)(C)Nc1ccc(C(=O)Nc2cccc(N3CCO[C@H](C)C3)n2)c(N2CCC3(CC2)CC3)n1` [Example 200, 2-(6-azaspiro[2.5]octan-6-yl)-6-((1-methoxy-2-methyl-2-propanyl)amino)-N-(6-((2R)-2-methyl-4-morpholinyl)-2-pyridinyl)-3-pyridinecarboxamide], 636 nM.
To `CC(C)C1CN(c2cccc(NC(=O)c3ccc(NC(C)(C)CO)nc3N3CCC4(CC3)CC4)n2)CCO1` (centres unmarked) [Example 203, 6-((1-hydroxy-2-methylpropan-2-yl)amino)-N-(6-(2-isopropylmorpholino)pyridin-2-yl)-2-(6-azaspiro[2.5]octan-6-yl)nicotinamide] belongs 242 nM; to `CCC1CN(c2cccc(NC(=O)c3ccc(NC(C)(C)CO)nc3N3CCC4(CC3)CC4)n2)CCO1` (centres unmarked) [Example 204, N-(6-(2-ethylmorpholino)pyridin-2-yl)-6-((1-hydroxy-2-methylpropan-2-yl)amino)-2-(6-azaspiro[2.5]octan-6-yl)nicotinamide], 160 nM; to `CC(C)(CO)Nc1ccc(C(=O)Nc2cccc(N3CCOC(C(F)(F)F)C3)n2)c(N2CCC3(CC2)CC3)n1` (centres unmarked) [Example 205, 6-((1-hydroxy-2-methylpropan-2-yl)amino)-2-(6-azaspiro[2.5]octan-6-yl)-N-(6-(2-(trifluoromethyl)morpholino)pyridin-2-yl)nicotinamide], 123 nM.
To `Cc1cc(NC(=O)c2ccc(OCC(N)(CO)C(F)(F)F)nc2N2CCC3(CC2)CC3)nc(N2CCOCC2)c1` (centres unmarked) [Example 208, 6-(2-amino-3,3,3-trifluoro-2-(hydroxymethyl)propoxy)-N-(4-methyl-6-morpholinopyridin-2-yl)-2-(6-azaspiro[2.5]octan-6-yl)nicotinamide] belongs 692 nM; to `C[C@@H]1CN(c2cccc(NC(=O)c3ccc(OCCC(C)(C)N)nc3N3CCC4(CC3)CC4)n2)CCO1` [Example 209, 6-(3-amino-3-methylbutoxy)-2-(6-azaspiro[2.5]octan-6-yl)-N-(6-((2R)-2-methyl-4-morpholinyl)-2-pyridinyl)-3-pyridinecarboxamide], 411 nM; to `CC(C)(CCO)Nc1ccc(C(=O)Nc2cccc(N3CCO[C@H](CO)C3)n2)c(N2CCC3(CC2)CC3)n1` [Example 210, 2-(6-azaspiro[2.5]octan-6-yl)-6-((4-hydroxy-2-methyl-2-butanyl)amino)-N-(6-((2S)-2-(hydroxymethyl)-4-morpholinyl)-2-pyridinyl)-3-pyridinecarboxamide], 239 nM.
On to `Cc1cc(NC(=O)c2ccc(NC(C)(C)CCO)nc2N2CCC3(CC2)CC3)nc(N2CCOCC2)c1` [Example 211, 2-(6-azaspiro[2.5]octan-6-yl)-6-((4-hydroxy-2-methyl-2-butanyl)amino)-N-(4-methyl-6-(4-morpholinyl)-2-pyridinyl)-3-pyridinecarboxamide], for which the IC50 came out at 142 nM.
`Cc1cc(NC(=O)c2ccc(N3CC(O)CC3(C)C)nc2N2CCC3(CC2)CC3)nc(N2CCOCC2)c1` (stereo not drawn) [Example 212, 6-(4-hydroxy-2,2-dimethylpyrrolidin-l-yl)-N-(4-methyl-6-morpholinopyridin-2-yl)-2-(6-azaspiro[2.5]octan-6-yl)nicotinamide]: the IC50 was 540 nM.
Take `C[C@@H]1CN(c2cccc(NC(=O)c3ccc(N4CC(O)CC4(C)C)nc3N3CCC4(CC3)CC4)n2)CCO1` (stereo partly drawn) [Example 213, 6-(4-hydroxy-2,2-dimethylpyrrolidin-1-yl)-N-(6-((R)-2-methylmorpholino)pyridin-2-yl)-2-(6-azaspiro[2.5]octan-6-yl)nicotinamide]: the IC50 is 523 nM.
Take `C[C@@H]1CN(c2cccc(NC(=O)c3ccc(NC(C)(C)CCO)nc3N3CCC4(CC3)CC4)n2)CCO1` [Example 214, 2-(6-azaspiro[2.5]octan-6-yl)-6-((4-hydroxy-2-methyl-2-butanyl)amino)-N-(6-((2R)-2-methyl-4-morpholinyl)-2-pyridinyl)-3-pyridinecarboxamide]: the IC50 stood at 170 nM.
To `CC(C)(CO)Nc1ccc(C(=O)Nc2cccc(N3CCC(O)CC3)n2)c(N2CCC3(CC2)CC3)n1` [Example 215, 2-(6-azaspiro[2.5]octan-6-yl)-6-((1-hydroxy-2-methyl-2-propanyl)amino)-N-(6-(4-hydroxy-1-piperidinyl)-2-pyridinyl)-3-pyridinecarboxamide] belongs 330 nM; to `CC(C)(CO)Nc1ccc(C(=O)Nc2cccc(N3CCC[C@@H](O)C3)n2)c(N2CCC3(CC2)CC3)n1` [Example 216, 2-(6-azaspiro[2.5]octan-6-yl)-6-((1-hydroxy-2-methyl-2-propanyl)amino)-N-(6-((3R)-3-hydroxy-1-piperidinyl)-2-pyridinyl)-3-pyridinecarboxamide], 80.4 nM.
